Experiment: Inhibition of alpha glucosidase

pIC50	Compound
5.28	O=S(=O)([O-])O[C@@H](CO)[C@H](O)C[S@+]1C[C@@H](O)[C@H](O)[C@H]1CO [SALACINOL]
< 3	[O-]C[C@@H](O)[C@@H](O)C[S@+]1C[C@@H](O)[C@H](O)[C@H]1CO
3.94	[O-]CC[C@H](O)C[S@+]1C[C@@H](O)[C@H](O)[C@H]1CO
< 3	O=S(=O)([O-])O[C@H](CO)[C@@H](O)C[S@+]1C[C@@H](O)[C@H](O)[C@H]1CO
< 3	O=S(=O)([O-])OCCC[S@+]1C[C@@H](O)[C@H](O)[C@H]1CO
< 3	O=S(=O)([O-])O[C@@H](CO)CC[S@+]1C[C@@H](O)[C@H](O)[C@H]1CO
5.1	[O-][C@@H](CO)[C@H](O)C[S@+]1C[C@@H](O)[C@H](O)[C@H]1CO [NEOSALACINOL]
3	O=S(=O)([O-])OC[C@H](O)C[S@+]1C[C@@H](O)[C@H](O)[C@H]1CO [SALAPRINOL]
